Source: PubChem BioAssay (NCI)
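Grown in 96-well plates, cells were treated for 48 hours with each compound at five concentrations. Insufficient inhibition: endpoint recorded as highest concentration tested. At the GI50, growth is halved. TGI is the concentration that stops growth completely.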

Experiments:
Experiment in all cases: NCI anticancer screen, dose series, 48 h
HOP-92 NSCLC = test system: HOP-92 NSCLC
T-47D breast = test system: T-47D breast
M14 melanoma = test system: M14 melanoma
OVCAR-5 ovarian = test system: OVCAR-5 ovarian
SK-MEL-28 melanoma = test system: SK-MEL-28 melanoma
SK-MEL-2 melanoma = test system: SK-MEL-2 melanoma
786-0 renal = test system: 786-0 renal
A549 NSCLC = test system: A549 NSCLC
NCI-H23 lung = test system: NCI-H23 lung
RPMI-8226 leukemia = test system: RPMI-8226 leukemia
SN12C renal = test system: SN12C renal
LOX IMVI melanoma = test system: LOX IMVI melanoma
CCRF-CEM leukemia = test system: CCRF-CEM leukemia
CAKI-1 renal = test system: CAKI-1 renal
MCF7 breast = test system: MCF7 breast
OVCAR-8 ovarian = test system: OVCAR-8 ovarian
MDA-MB-435 = test system: MDA-MB-435
SR leukemia = test system: SR leukemia
HL-60(TB) leukemia = test system: HL-60(TB) leukemia
OVCAR-4 ovarian = test system: OVCAR-4 ovarian
RXF 393 renal = test system: RXF 393 renal
NCI-H460 lung = test system: NCI-H460 lung
SNB-19 CNS = test system: SNB-19 CNS
EKVX NSCLC = test system: EKVX NSCLC
MALME-3M melanoma = test system: MALME-3M melanoma
MDA-MB-231 breast = test system: MDA-MB-231 breast
U251 CNS = test system: U251 CNS
HCT-15 colon = test system: HCT-15 colon
SK-OV-3 ovarian = test system: SK-OV-3 ovarian
UACC-257 melanoma = test system: UACC-257 melanoma
TK-10 renal = test system: TK-10 renal
A498 renal = test system: A498 renal
NCI-H522 lung = test system: NCI-H522 lung
ACHN renal = test system: ACHN renal
MOLT-4 leukemia = test system: MOLT-4 leukemia
MDA-MB-468 breast = test system: MDA-MB-468 breast
UACC-62 melanoma = test system: UACC-62 melanoma
HS 578T breast = test system: HS 578T breast
PC-3 prostate = test system: PC-3 prostate
OVCAR-3 ovarian = test system: OVCAR-3 ovarian
DU-145 prostate = test system: DU-145 prostate
SF-268 CNS = test system: SF-268 CNS
HT29 colon = test system: HT29 colon
HCT-116 colon = test system: HCT-116 colon
SF-539 CNS = test system: SF-539 CNS
UO-31 renal = test system: UO-31 renal
K-562 leukemia = test system: K-562 leukemia
HCC-2998 colon = test system: HCC-2998 colon
BT-549 breast = test system: BT-549 breast
SF-295 CNS = test system: SF-295 CNS
SNB-75 CNS = test system: SNB-75 CNS
KM12 colon = test system: KM12 colon
SK-MEL-5 melanoma = test system: SK-MEL-5 melanoma
COLO 205 colon = test system: COLO 205 colon
SW-620 colon = test system: SW-620 colon
NCI-H226 lung = test system: NCI-H226 lung
IGROV1 ovarian = test system: IGROV1 ovarian
HOP-62 NSCLC = test system: HOP-62 NSCLC

CSc1ccc(NC(=O)c2ccc3nnn(/C(C#N)=C/c4ccccn4)c3c2)cc1
GI50 (HOP-92 NSCLC): 1.5 µM | TGI (HOP-92 NSCLC): 3.2 µM | GI50 (T-47D breast): 1.33 µM | TGI (T-47D breast): 3.06 µM | GI50 (M14 melanoma): 1.67 µM | TGI (M14 melanoma): 3.27 µM | GI50 (OVCAR-5 ovarian): 1.6 µM | TGI (OVCAR-5 ovarian): 3.02 µM | GI50 (SK-MEL-28 melanoma): 1.48 µM | TGI (SK-MEL-28 melanoma): 2.82 µM | GI50 (SK-MEL-2 melanoma): 1.71 µM | TGI (SK-MEL-2 melanoma): 3.22 µM | GI50 (786-0 renal): 1.57 µM | TGI (786-0 renal): 3.05 µM | GI50 (A549 NSCLC): 2.91 µM | TGI (A549 NSCLC): 11 µM | GI50 (NCI-H23 lung): 1.59 µM | TGI (NCI-H23 lung): 2.97 µM | GI50 (RPMI-8226 leukemia): 1.46 µM | TGI (RPMI-8226 leukemia): 4.7 µM | GI50 (SN12C renal): 1.78 µM | TGI (SN12C renal): 3.51 µM | GI50 (LOX IMVI melanoma): 0.879 µM | TGI (LOX IMVI melanoma): 2.12 µM | GI50 (CCRF-CEM leukemia): 1.38 µM | TGI (CCRF-CEM leukemia): 8.01 µM | GI50 (CAKI-1 renal): 1.2 µM | TGI (CAKI-1 renal): 2.46 µM | GI50 (MCF7 breast): 1.01 µM | TGI (MCF7 breast): 2.51 µM | GI50 (OVCAR-8 ovarian): 1.75 µM | TGI (OVCAR-8 ovarian): 3.68 µM | GI50 (MDA-MB-435): 1.46 µM | TGI (MDA-MB-435): 2.92 µM | GI50 (SR leukemia): 1.65 µM | TGI (SR leukemia): 34.4 µM | GI50 (HL-60(TB) leukemia): 1.59 µM | TGI (HL-60(TB) leukemia): 7.08 µM | GI50 (OVCAR-4 ovarian): 1.64 µM | TGI (OVCAR-4 ovarian): 3.01 µM | GI50 (RXF 393 renal): 1.32 µM | TGI (RXF 393 renal): 2.6 µM | GI50 (NCI-H460 lung): 1.93 µM | TGI (NCI-H460 lung): 4.59 µM | GI50 (SNB-19 CNS): 2.74 µM | TGI (SNB-19 CNS): 8.65 µM | GI50 (EKVX NSCLC): 1.59 µM | TGI (EKVX NSCLC): 3 µM | GI50 (MALME-3M melanoma): 1.57 µM | TGI (MALME-3M melanoma): 2.96 µM | GI50 (MDA-MB-231 breast): 1.75 µM | TGI (MDA-MB-231 breast): 3.21 µM | GI50 (U251 CNS): 1.56 µM | TGI (U251 CNS): 3.05 µM | GI50 (HCT-15 colon): 1.04 µM | TGI (HCT-15 colon): 2.3 µM | GI50 (SK-OV-3 ovarian): 5.49 µM | TGI (SK-OV-3 ovarian): 18 µM | GI50 (UACC-257 melanoma): 1.6 µM | TGI (UACC-257 melanoma): 3.07 µM | GI50 (TK-10 renal): 1.57 µM | TGI (TK-10 renal): 2.98 µM | GI50 (A498 renal): 9.47 µM | TGI (A498 renal): 21.4 µM | GI50 (NCI-H522 lung): 1.25 µM | TGI (NCI-H522 lung): 2.65 µM | GI50 (ACHN renal): 1.69 µM | TGI (ACHN renal): 3.06 µM | GI50 (MOLT-4 leukemia): 1.83 µM | TGI (MOLT-4 leukemia): 8.33 µM | GI50 (MDA-MB-468 breast): 0.904 µM | TGI (MDA-MB-468 breast): 2.28 µM | GI50 (UACC-62 melanoma): 1.61 µM | TGI (UACC-62 melanoma): 3.05 µM | GI50 (HS 578T breast): 2.07 µM | TGI (HS 578T breast): 4.96 µM | GI50 (PC-3 prostate): 2.04 µM | TGI (PC-3 prostate): 4.37 µM | GI50 (OVCAR-3 ovarian): 1.22 µM | TGI (OVCAR-3 ovarian): 2.54 µM | GI50 (DU-145 prostate): 1.63 µM | TGI (DU-145 prostate): 2.99 µM | GI50 (SF-268 CNS): 2.47 µM | TGI (SF-268 CNS): 7.06 µM | GI50 (HT29 colon): 1.89 µM | TGI (HT29 colon): 3.89 µM | GI50 (HCT-116 colon): 1.74 µM | TGI (HCT-116 colon): 3.55 µM | GI50 (SF-539 CNS): 1.61 µM | TGI (SF-539 CNS): 2.97 µM | GI50 (UO-31 renal): 1.35 µM | TGI (UO-31 renal): 2.64 µM | GI50 (K-562 leukemia): 1.23 µM | TGI (K-562 leukemia): > 100 µM | GI50 (HCC-2998 colon): 1.65 µM | TGI (HCC-2998 colon): 3.01 µM | GI50 (BT-549 breast): 1.61 µM | TGI (BT-549 breast): 3.13 µM | GI50 (SF-295 CNS): 1.88 µM | TGI (SF-295 CNS): 4.66 µM | GI50 (SNB-75 CNS): 1.82 µM | TGI (SNB-75 CNS): 4.38 µM | GI50 (KM12 colon): 1.6 µM | TGI (KM12 colon): 3.27 µM | GI50 (SK-MEL-5 melanoma): 1.64 µM | TGI (SK-MEL-5 melanoma): 3.05 µM | GI50 (COLO 205 colon): 1.11 µM | TGI (COLO 205 colon): 2.39 µM | GI50 (SW-620 colon): 0.763 µM | TGI (SW-620 colon): 2.14 µM | GI50 (NCI-H226 lung): 2.29 µM | TGI (NCI-H226 lung): 6.14 µM | GI50 (IGROV1 ovarian): 1.87 µM | TGI (IGROV1 ovarian): 3.57 µM | GI50 (HOP-62 NSCLC): 2.21 µM | TGI (HOP-62 NSCLC): 5.63 µM
